Here are results for 4 compounds from patent publication US12558368B2, “Compositions and devices for systemic delivery of uridine” (PHARMA CINQ, LLC, priority 2018, dated 2026).

Series [1] deals with mortality caused by 3-nitropropionic acid (inhibitor of Complex II of the mitochondrial respiratory chain). The series can be described thus: Protection against mortality caused by 3-nitropropionic acid (Example 2; uridine, Na(DL-BHB), Na(D-BHB)). The settings on record: 3-NP 60 mg/kg/day i.p., s.c. uridine 200 mg/kg t.i.d. and/or Na(DL-BHB) or Na(D-BHB) 328 mg/kg t.i.d.; for Median Survival: 12 day study; for % Survival: end of 12 day study, 10 mice per group. The series is classed as in vivo, Female CD-1 mice. The method, then: Mitochondrial dysfunction was produced by daily administration of 3-nitropropionic acid (60 mg/kg/day) by intraperitoneal injection. Groups of mice also received saline (control), uridine, DL-BHB, D-BHB, and combinations of uridine and D-BHB and DL-BHB as indicated below. Both D- and DL-BHB were administered as the water soluble sodium salts: Na(D-BHB) (Toronto Research Chemicals, catalog #H833025) and Na(DL-BHB) (VWR International, catalog #200012-200).
• 1. Vehicle Control—0.9% saline b.i.d. • 2. Uridine 200 mg/kg t.i.d. • 3. Na (DL-BHB) 328 mg/kg t.i.d. • 4. Na (D-BHB) 328 mg/kg t.i.d. • 5. Uridine 200 mg/kg+Na (DL-BHB) 328 mg/kg t.i.d. • 6. Uridine 200 mg/kg+Na (D-BHB) 328 mg/kg t.i.d.
Survival times (median survival; the time point at which 50% of animals in a group had died) and percent survival at the end of the 12 day study were used to quantify and compare protective effects of the test agents.
Female CD-1 mice at approximately 16 weeks of age were divided into weight-matched groups of 10 mice each. All mice received daily intraperitoneal injections of 3-NP (60 mg/kg) in a volume of 0.01 ml per gram of body weight at 5 PM.
The therapeutic treatments were administered by subcutaneous injection in a volume of 0.01 ml/gram of body weight three times per day, at 7 AM and 12 PM and 4 PM. 3-NP was administered at 5 PM on each of the consecutive days of the experiment. Body weights were recorded each day to adjust drug doses as mice lost weight during repeated treatment with 3-NP. Body weight was graphed for the various groups of mice until the group size decreased below 3.

For series [2] the test system is unchanged. Nature of the series: Protection against mortality caused by 3-nitropropionic acid at 65 or 70 mg/kg/day (Example 3; uridine, Na(D-BHB)). The series is classed as in vivo, Female CD-1 mice. As to conditions: s.c. uridine 200 mg/kg t.i.d. and/or Na(D-BHB) 985 mg/kg t.i.d.; for % Survival: end of study, 10 mice per group. The source says:
Subcutaneous administration of therapeutic agents is a suitable route of administration for emergency drugs that are intended to be used in people with traumatic brain injury, stroke or asphyxia, where the patient may not be capable of ingesting oral medications or may be in a situation where it is difficult to place an intravenous catheter. Subcutaneous drug administration is practical, but the composition must conform to volumes and osmolality values that are known to be compatible with this route of administration; excessively high osmolality can cause local edema, and volumes must be low enough for injection without problematic back pressure. Compositions comprising uridine, sodium beta-hydroxybutyrate and a combination of the two, with the osmolality restricted to a maximum of 800 milliosmoles/liter (a value known to be acceptable for subcutaneous fluid administration) were tested in a model of whole-body energy failure induced by daily intraperitoneal injections of 3-nitropropionic acid at two dose levels, 65 mg/kg/day and 70 mg/kg/day.
Survival times (median survival; the time point at which 50% of animals in a group had died) and percent survival at the end of a 13 day study were used to quantify and compare protective effects of the test agents.
Female CD-1 mice at approximately 16 weeks of age were divided into weight-matched groups of 10 mice each. All mice received daily intraperitoneal injections of 3-NP (65 mg/kg or 70 mg/kg) in a volume of 0.01 ml per gram of body weight at 5 PM.
The therapeutic treatments were administered by subcutaneous injection in a volume of 0.02 ml/gram of body weight three times per day, at 7 AM and 12 PM and 4 PM. 3-NP was administered at 5 PM on each of the consecutive days of the experiment. Body weights were recorded each day to adjust drug doses as mice lost weight during repeated treatment with 3-NP. D-BHB was administered as the water soluble sodium salt Na(D-BHB) (Toronto Research Chemicals, catalog #H833025.
1. Vehicle Control—0.9% saline t.i.d.
2. Uridine 200 mg/kg t.i.d.
3. Na(D-BHB) 985 mg/kg t.i.d.
4. Uridine 200 mg/kg+Na(D-BHB) 985 mg/kg t.i.d.

Series [3] is described as follows: Pharmacokinetics of plasma uridine and D-BHB after subcutaneous administration. The settings on record: mice. The series is classed as in vivo, Female CD-1 mice. The method, then:
Groups of 8 mice (Female CD-1 mice, approximately 16 weeks old) were treated with subcutaneous uridine or uridine plus Na(D-BHB) as indicated in the table below. D-BHB was administered as the water soluble sodium salt Na(D-BHB) (Toronto Research Chemicals, catalog #H833025
• 1. Group 1 (200 mg/kg Uridine+Na(D-BHB) received 10 mg/ml uridine and 49.26 mg/ml Na(D-BHB) (0.02 ml/g bw). • 2. Group 2 (300 mg/kg Uridine+Na(D-BHB) received 15 mg/ml uridine and 49.26 mg/ml Na(D-BHB) (0.02 ml/g bw). • 3. Group 3 (400 mg/kg Uridine+Na(D-BHB) received 20 mg/ml uridine and 49.26 mg/ml Na(D-BHB) (0.02 ml/g bw). • 4. Group 4 (400 mg/kg Uridine) received 20 mg/ml uridine (0.02 ml/g bw).
Blood samples were obtained from the retro-orbital plexus at time points of 15, 30, 60 and 120 minutes after drug injection. Two blood samples (<200 microliters) were collected from each mouse into heparinized polyethylene tubes, with 4 mice bled at 15 and 60 minutes, and the other 4 mice in a group were bled at 30 and 120 minutes. Plasma samples were obtained by centrifugation, and were deproteinized and analyzed for uridine and uracil by an LC/MS method. Plasma D-BHB was measured in the same samples by a commercial enzymatic color-change assay.
Rodents degrade uridine to uracil more rapidly and extensively than do humans, who have lower activities of the enzyme uridine phosphorylase. Therefore, it is important to take into account plasma uracil concentrations in rodents for optimum translation of rodent pharmacokinetic results to the human situation. The sum of uridine+uracil in rodents is a better reflection of plasma uridine equivalents than is uridine alone for translation to other animal models or to human dosing.

For series [4] the following is noted: humans, cited from earlier work.
The subject of series [5] is mortality caused by 3-nitropropionic acid (inhibitor of Complex II of the mitochondrial respiratory chain). The series can be described thus: Protection against mortality caused by 3-nitropropionic acid (Example 1; uridine and MgBHB). The settings on record: 3-NP 60 mg/kg/day i.p., s.c. uridine 300 mg/kg b.i.d. and/or MgBHB 300 mg/kg b.i.d.; for Median Survival: 13 day study; for % Survival: end of 13 day study, 10 mice per group. The series is classed as in vivo, Female CD-1 mice. The source says:
3-nitropropionic acid (3-NP) is an inhibitor of Complex II of the mitochondrial respiratory chain. Administration of 3-NP to experimental animals has been used as a model for mitochondrial diseases, Huntington's disease and pathological consequences of hypoxia. Daily dosing with 3-NP causes energy failure in the brain, heart and other tissues, resulting in mortality after several days. A 3-NP dosing regimen that caused 100% mortality in mice after approximately one week was selected for further evaluation of mortality, which is indicative of neuroprotective and cardioprotective effects, of compositions of the invention in a model of disorders caused by mitochondrial dysfunction. Survival times (median survival; the time point at which 50% of animals in a group had died) and percent survival at the end of the 13 day study were used to quantify protective effects of the test agents.
Female CD-1 mice at approximately 16 weeks of age were divided into weight-matched groups of 10 mice each. All mice received daily intraperitoneal injections of 3-NP (60 mg/kg) in a volume of 0.01 ml per gram of body weight. 3-NP was administered at 2 PM on each of the 13 consecutive days of the experiment. Body weights were recorded each day to adjust drug doses as mice lost weight during repeated treatment with 3-NP.
The comparative efficacy of uridine (VWR International) and the magnesium salt of racemic beta-hydroxybutyrate (magnesium β-hydroxybutyrate trihydrate; MgBHB·3H2O) (Nutra Planet) were assessed, as was the efficacy of a combination of uridine and MgBHB. All of the therapeutic treatments were administered by subcutaneous injection in a volume of 0.02 ml/gram of body weight twice per day, at 7 AM and 1 PM.
• 1. Vehicle Control—0.9% saline b.i.d. • 2. Uridine 300 mg/kg b.i.d. • 3. MgBHB 300 mg/kg b.i.d.

Where [6] appears, read: s.c. Na(D-BHB) 985.1 mg/kg with uridine.

Regarding `CC(O)CC(=O)[O-].[Na+]` (racemic) [Na (DL-BHB)], the “Median Survival” value amounted to 8 days in series [1] and 7.5 days in series [1] (listed as Na(DL-BHB)). Besides, the “% Survival” value in series [1] was 20% (2/10); in series [1] (listed as Na(DL-BHB)), 20%.

On to `C[C@@H](O)CC(=O)[O-].[Na+]` [Na (D-BHB)], for which the “Median Survival” value in series [2] (3-NP 65 mg/kg/day i.p.) is 10.5 days; in series [2] (3-NP 70 mg/kg/day i.p.), 6 days; in series [1], 7.5 days; in series [1] (listed as Na(D-BHB)), 8 days. Also, the “% Survival” value in series [2] (3-NP 65 mg/kg/day i.p.) was 40% (4/10); in series [2] (3-NP 70 mg/kg/day i.p.), 0% (0/10); in series [1], 10% (1/10); in series [1] (listed as Na(D-BHB)) it was 10%. Also, in series [3] (setting [6]), the “Maximum D-BHB concentration in plasma” value is given as “approximately 3 millimolar”. The “Tmax of plasma D-BHB” value in series [3] (setting [6]) stood at 15 min.

As for `O=c1ccn([C@@H]2O[C@H](CO)[C@@H](O)[C@H]2O)c(=O)[nH]1` [Uridine, uridine], the “Median Survival” value in series [2] (3-NP 65 mg/kg/day i.p.) came to 9 days; in series [2] (3-NP 70 mg/kg/day i.p.) it was 6.5 days; in series [1], 12 days; in series [5], 12 days. Besides, the “% Survival” value in series [2] (3-NP 65 mg/kg/day i.p.) is 30% (3/10); in series [2] (3-NP 70 mg/kg/day i.p.) it was 10% (1/10); in series [5] it was 40% (4/10). Moreover, the “Local tolerability of infusion into peripheral veins” value in series [4] (infusion into accessible peripheral veins) is “caused local phlebitis”. In series [4] (intravenous infusion), the “Dose-limiting toxicity during intravenous infusion” value was “Hyperthermia was encountered as a dose-limiting toxicity”. Moreover, the time to peak (Tmax) (usually the time at which the peak concentration occurs) in series [3] (female, CD-1, mouse, plasma, sc, s.c. uridine 200-400 mg/kg with or without Na(D-BHB) 985.1 mg/kg, read-out: Tmax of plasma uridine (and uridine+uracil)) lay within 15 to 30 min. Further, in series [3] (s.c. uridine 200, 300, 400 mg/kg), the “Plasma uridine (and uridine+uracil) C max values” is on record as “dose-dependent”.

Consider “magnesium β-hydroxybutyrate trihydrate [MgBHB]”, for which, in series [5], the “Median Survival” value amounted to 10 days and the “% Survival” value is 20% (2/10).
